Laboratory results from patent publication US4044043A, “Derivatives of 9-oxo-13-trans-prostenoic acid esters” (American Cyanamid Company, priority 1975, dated 1977).
≈ marks a conversion by molar mass, not a printed value. Where two headings read alike, the source gives them in different places.

How the values were obtained:
[1] = tested on: Trichophyton mentagrophytes E 11; assay: agar-dilution streak-plate antimicrobial assay; type: cell-based; conditions: E11, read-out: Minimal inhibitory conc. (4)
In short: (§1)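 Test solutions at 2.5 mg/ml were two-fold serially diluted, and 1 ml of each was mixed into 9 ml warm nutrient agar, with bacterial and fungal media kept separate. Overnight broth cultures or saline spore suspensions were streaked by loop. MIC was the lowest concentration (µg/ml) giving complete visible growth inhibition.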

[2] = tested on: Trichophyton tonsurans NIH 662; assay: agar-dilution streak-plate antimicrobial assay; type: cell-based; conditions: NIH662, read-out: Minimal inhibitory conc. (3)
In short: as §1

Trichophyton rubrum E 97 = assay: agar-dilution streak-plate antimicrobial assay; type: cell-based; conditions: E97, read-out: Minimal inhibitory conc. (5)
In short: as §1

[3] = tested on: Microsporum gypseum ATCC 14683; assay: agar-dilution streak-plate antimicrobial assay; type: cell-based; conditions: Nannizzia gypsea, ATCC14683, read-out: Minimal inhibitory conc. (2)
In short: as §1

[4] = tested on: Microsporum canis ATCC 10214; assay: agar-dilution streak-plate antimicrobial assay; type: cell-based; conditions: ATCC10214, read-out: Minimal inhibitory conc. (1)
In short: as §1

diastolic blood pressure = assay: Prostaglandin-like hypotensive activity in anesthetized rats (minimal dose for about 10 mm. decrease in diastolic blood pressure); type: in vivo, Male Wistar strain rats; conditions: Rattus norvegicus; intravenous; decrease of about 10 mm. in diastolic blood pressure
In short: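 Male Wistar rats (~250 g), pentobarbital 30 mg./kg. i.v. and hexamethonium 2 mg./kg. i.v., iliac artery cannulated for blood pressure. Compounds in saline-Tween 80 given i.v. at 0.1–10.0 mg./kg.; value is the minimal dose giving ~10 mm. drop in diastolic pressure.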

gastric acid secretion = assay: Inhibition of basal Gastric Acid Secretion (Acute Gastric Fistula Rat); type: in vivo, Female Sprague-Dawley rats; conditions: 2 h, 10 mg./kg. intraduodenal, B: 120 minute collection
Description: Inhibition of basal gastric acid secretion was determined in the acute gastric fistula rat as follows. Female Sprague-Dawley rats (Charles River Laboratories) weighing 140-160 grams are fasted in individual cages for 18-24 hours. The rats are then lightly anesthetized with ether and their front teeth extracted to avoid destruction of the plastic cannula. A midline incision is then made and the stomach and duodenum exposed. A flanged polyvinyl tube is inserted into the fundic portion of the stomach and secured with a purse string suture line using 4-0 Mersilene. The rat is then dosed by injection of the compound into the duodenum (1.0 ml. per 100 gram body weight). After dosing, the abdominal wall and skin are closed using metal wound clips. The rat is replaced in a cage containing a longitudinal slit to allow the polyvinyl tube to hang freely. An 8 ml. plastic collecting tube is attached to the flanged cannula and hangs freely below the cage. The first 30 minute sample is discarded designating this time as zero. The collecting tube is attached again and samples removed at the end of 60 and 120 minutes. Those samples are referred to as "A" and "B" in the table. The hourly samples are then transferred to a 15 ml. centrifuge tube and centrifuged for 5-10 minutes. Total and sediment volume are then recorded with the supernatant volume being used as volume of secretion. A 1 ml. or less aliquot is then removed and placed in a 50 ml. beaker containing 10 ml. of distilled water. This sample is then titrated using 0.01N NaOH to pH 7.0 using a Beckman zeromatic pH meter. Volume, titratable acidity (meq/L) and total acid output (μ eq/hour) are recorded. Percent inhibition is determined by comparison with the appropriate control. Groups of three rats were used. All compounds are administered in vehicle (0.5% methocel, 0.4% Tween 80, saline) at a constant volume of 1 ml./100 gram rat. Samples were sonicated with care to prevent overheating.

[5] = tested on: dl-PGE1-induced contraction of gerbil colon; assay: Inhibition of dl-PGE1-Induced Contraction of Gerbil Colon (prostaglandin antagonist action); type: cell-based, gerbils (Meriones unguiculatus); conditions: Meriones unguiculatus, 1 min; sub-maximal challenge, 20 ng./ml. dl-PGE1; 50% inhibition of maximum response; read-out: ID50 vs. 20 ng. of PGE1/ml.
In short: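 Ascending colon from male gerbils, held in De Jalon's solution at 37 °C under 95% O2/5% CO2 with 0.5 g resting tension, contraction recorded isometrically. 1 min compound exposure, then 1 min dl-PGE1 at 200 ng/ml (maximal) or 20 ng/ml (sub-maximal). Approximate ID50 taken from a concentration series against the preceding agonist-only cycle.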

[6] = tested on: Mycobacterium smegmatis ATCC 606; assay: agar-dilution streak-plate antimicrobial assay; type: cell-based; conditions: Mycolicibacterium smegmatis, ATCC606, read-out: Minimal inhibitory conc. (6)
In short: as §1

[7] = tested on: Staphylococcus aureus Rose ATCC 14154; assay: agar-dilution streak-plate antimicrobial assay; type: cell-based; conditions: ATCC14154, read-out: Minimal inhibitory conc. (7)
In short: as §1

[8] = tested on: Streptococcus pyogenes C 203; assay: agar-dilution streak-plate antimicrobial assay; type: cell-based; conditions: C203, read-out: Minimal inhibitory conc. (8)
In short: as §1

[9] = tested on: bronchospasms elicited by 5-hydroxytryptamine; assay: Bronchodilator Activity (Konzett Assay) against 5-hydroxytryptamine; type: in vivo, guinea pigs; conditions: Cavia porcellus; three logarithmic cumulative intravenous doses
In short: (§2)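 Guinea pigs given intravenous spasmogen (5-hydroxytryptamine, histamine or acetylcholine) per Konzett procedure. ED50 derived from three logarithmic cumulative intravenous doses of test compound.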

[10] = tested on: bronchospasms elicited by histamine; assay: Bronchodilator Activity (Konzett Assay) against histamine; type: in vivo, guinea pigs; conditions: Cavia porcellus; three logarithmic cumulative intravenous doses
In short: as §2

[11] = tested on: bronchospasms elicited by acetylcholine; assay: Bronchodilator Activity (Konzett Assay) against acetylcholine; type: in vivo, guinea pigs; conditions: Cavia porcellus; three logarithmic cumulative intravenous doses
In short: as §2

| MIC [1] [mg/L] | MIC [2] [mg/L] | MIC (Trichophyton rubrum E 97) [mg/L] | MIC [3] [mg/L] | MIC [4] [mg/L] | IC50 [5] [mg/L] | MIC [6] [mg/L] | MIC [7] [mg/L] | MIC [8] [mg/L] | SMILES | minimal effective dose (diastolic blood pressure) [mg/kg] | inhibition in vivo at 10 mg/kg (gastric acid secretion; read-out: % Inhibition Total Acid Output) [%] | inhibition in vivo at 10 mg/kg (gastric acid secretion; read-out: % Inhibition Total Acidity) [%] | ED50 [9] [mg/kg] | ED50 [10] [mg/kg] | ED50 [11] [mg/kg] |
| --- | --- | --- | --- | --- | --- | --- | --- | --- | --- | --- | --- | --- | --- | --- | --- |
|  | 250 (≈ 635 µM) |  |  | 250 (≈ 635 µM) |  | 10 (≈ 25.4 µM) | 50 (≈ 127 µM) | 10 (≈ 25.4 µM) | CCCCCC/C=C/[C@@H]1CCC(=O)[C@H]1CCCCCCC(=O)OCCN(C)C (relative stereo) [β-dimethylaminoethyl 9-oxo-13-trans-prostenoate] | 0.5 to 2 |  |  |  |  |  |
| 62 (≈ 209 µM) | 62 (≈ 209 µM) | 250 (≈ 843 µM) | 62 (≈ 209 µM) | 250 (≈ 843 µM) | 10 to 12 (≈ 33.7 to 40.5 µM) | 62 (≈ 209 µM) | 250 (≈ 843 µM) | 62 (≈ 209 µM) | CCCCCCC=CC1CCC(O)C1CCCCC(=O)O (stereo not drawn) [9-hydroxy-6,7-dinor-13-trans-prostenoic acid] | 2 |  |  | > 10 | 6.06 | > 10 |
| 62 (≈ 200 µM) | 62 (≈ 200 µM) | 250 (≈ 805 µM) | 62 (≈ 200 µM) |  | 5 to 10 (≈ 16.1 to 32.2 µM) | 62 (≈ 200 µM) | 125 (≈ 403 µM) | 25 (≈ 80.5 µM) | CC(C)CCC=CC1CCC(O)C1CCCCCCC(=O)O (stereo not drawn) [9-hydroxy-17-methyl-18,19-dinor-13-trans-prostenoic acid] | 0.2 to 2 |  |  |  |  |  |

Second part, the compound before the results:

| SMILES | MIC [1] [mg/L] | MIC [2] [mg/L] | MIC (Trichophyton rubrum E 97) [mg/L] | MIC [3] [mg/L] | MIC [4] [mg/L] | IC50 [5] [mg/L] | MIC [6] [mg/L] | MIC [7] [mg/L] | MIC [8] [mg/L] | minimal effective dose (diastolic blood pressure) [mg/kg] | inhibition in vivo at 10 mg/kg (gastric acid secretion; read-out: % Inhibition Total Acid Output) [%] | inhibition in vivo at 10 mg/kg (gastric acid secretion; read-out: % Inhibition Total Acidity) [%] | ED50 [9] [mg/kg] | ED50 [10] [mg/kg] | ED50 [11] [mg/kg] |
| --- | --- | --- | --- | --- | --- | --- | --- | --- | --- | --- | --- | --- | --- | --- | --- |
| CCCCCC/C=C/[C@@H]1CCC(=O)[C@H]1CC(=O)O (relative stereo) [9-oxo-3,4,5,6,7-pentanor-13-trans-prostenoic acid] | 250 (≈ 991 µM) | 125 (≈ 495 µM) | 250 (≈ 991 µM) | 250 (≈ 991 µM) | 250 (≈ 991 µM) |  |  |  |  | 2 | 64 | 48 |  |  |  |
| CCCCCC/C=C/[C@H]1CCC(=O)[C@@H]1CCCCC(=O)O (relative stereo) [9-oxo-6,7-dinor-13-trans-prostenoic acid] | 250 (≈ 849 µM) | 250 (≈ 849 µM) | 250 (≈ 849 µM) | 250 (≈ 849 µM) | 250 (≈ 849 µM) | 10 to 20 (≈ 34 to 67.9 µM) | 250 (≈ 849 µM) | 250 (≈ 849 µM) | 250 (≈ 849 µM) | 2 |  |  |  |  |  |
| CCCCCC/C=C/[C@H]1CCC(O)[C@@H]1CCCCCCC(=O)O (stereo partly drawn) [9-hydroxy-13-trans-prostenoic acid, 9α- and 9β-hydroxy-13-trans-prostenoic acid] | 50 (≈ 154 µM) | 50 (≈ 154 µM) |  | 25 (≈ 77 µM) | 50 (≈ 154 µM) |  | 25 (≈ 77 µM) | 50 (≈ 154 µM) | 25 (≈ 77 µM) | 2 |  |  |  |  |  |
